Source: patent publication US20110230504A1, “ALLEVIATING DISORDERS WITH COMBINING AGENTS THAT INCREASE EPOXYGENATED FATTY ACIDS AND AGENTS THAT INCREASE cAMP” (The Regents Of The University Of California Office Of …, priority 2008, published 2011)
“Also recorded” adds a separate entry of the source.

Legend:
StARD1 mRNA [1] = assay: StARD1 mRNA 30 min after intraspinal 8-Br cAMP, EETs, AEPU in non-inflamed rats; type: in vivo, rat; details: 8-Br cAMP 100 μg, EETs 5 μg, AEPU 1 μg
Procedure: To investigate the cooperation between cAMP and EETs in the spinal cord, a membrane permeable cAMP analogue, 8-Br cAMP (100 μg), was administered into the spinal cord by lumbar puncture (between L4-L5) and rapid (30 min.) expression of StARD1 mRNA in the spinal cord and the brain was quantified by qRT-PCR. In these experiments animals were maintained under deep anesthesia.

[2] = Brain, blood and plasma inhibitor levels, LC-ESI-MS/MS; details: 10 mg/kg TPAU, 40 mg/kg AUDA; unpublished results
rats [3] = assay: Mechanical hind paw withdrawal threshold (Randall-Selitto), non-inflammatory model; type: in vivo, rat
Procedure: Behavioral nociceptive testing was conducted by assessing thermal hindpaw withdrawal latencies (TWL) using a commercial Hargreaves apparatus (IITC, Woodland Hills, Calif.), or by determining mechanical hind paw withdrawal thresholds (MWT) using a digital paw pressure Randall-Selitto instrument (IITC, Woodland Hills, Calif.). On the day of the experiment, rats were transferred to a quiet room, acclimated for 1 hour and their baseline responses were measured. In pilot experiments, the intensity of the thermal stimulus was set to produce a baseline TWL of 7-8 sec. Baseline mechanical hind paw withdrawal thresholds varied between 60-70 grams of force. Immediately following baseline determination all compounds were administered subcutaneously in the following vehicles; Inhibitors of sEH were formulated in trans free oleate and administered in a total volume of 300 µL Rolipram, picrotoxin, flucanozole, miconazole and finasteride were all dissolved in a sterile saline solution containing 25% DMSO and administered in a volume of 50 μl. Caffeine was dissolved in saline and administered in a total volume of 300 μl. All agents were administered subcutaneously into the back. In groups treated with the sEHi, cytochrome P450 inhibitors, finasteride or picrotoxin animals were pretreated one hour before other compounds. In groups treated with the PDEi, immediately following PDEi administration animals were placed in acrylic chambers on a glass platform maintained at a temperature of 30±1° C. for TWL measurement. Three to five TWL measurements were taken at 1-2 min interstimulus intervals following treatments and these were averaged for each animal at each time point. […] The instrument was set to the maximum holding (MH) mode and the readout that elicited a hind paw withdrawal was designated as the threshold. […] Open field activity was quantified using a Plexiglas chamber (40×40×30 cm, length×width×height) imprinted with a 10×10 cm grid. […] The number of crossings were recorded when both hind paws crossed into a neighboring cell. […]

rats [4] = assay: Streptozocin induced diabetic neuropathy, Von Frey mechanical allodynia; type: in vivo, rat; details: Von Frey's test
Procedure: The study was approved by UC Davis Animal Care and Use Committee. Male Sprague-Dawley rats weighing 250-350 g were obtained from Charles River Inc. Two models of inflammatory pain and one model of diabetic neuropathic pain were used to test the effects of sEHI. The main inflammatory pain model used involved intraplantar LPS (10 μg/animal) administration as described previously (Inceoglu B et al., Life Sci 79:2311-2319 (2006)). Briefly, following baseline thermal withdrawal latency and mechanical withdrawal threshold determination LPS (in saline) was administered into one hind paw and nociceptive thresholds were monitored over time. The other inflammatory pain model involved intraplantar carrageenan (1% in saline, 50 μl) administration and was only used when sEHI was administered into the spinal cord. Intrathecal catheters were implanted according to Yaksh and Rudy (Yaksh T L and Rudy T A, Physiol Behav 17(6):1031-1036 (1976)). Following baseline nociceptive response measurements carrageenan was administered into one hind paw and responses were monitored over time and after intraspinal sEHI administration. […] In experiments in which EETs, sEHI and cAMP analogue was administered intraspinally animals were maintained under deep anesthesia and therefore nociceptive thresholds were not determined.

rats [5] = assay: Thermal hindpaw withdrawal latency (Hargreaves), non-inflammatory model; type: in vivo, rat
Procedure: Behavioral nociceptive testing was conducted by assessing thermal hindpaw withdrawal latencies (TWL) using a commercial Hargreaves apparatus (IITC, Woodland Hills, Calif.), or by determining mechanical hind paw withdrawal thresholds (MWT) using a digital paw pressure Randall-Selitto instrument (IITC, Woodland Hills, Calif.). On the day of the experiment, rats were transferred to a quiet room, acclimated for 1 hour and their baseline responses were measured. In pilot experiments, the intensity of the thermal stimulus was set to produce a baseline TWL of 7-8 sec. Baseline mechanical hind paw withdrawal thresholds varied between 60-70 grams of force. Immediately following baseline determination all compounds were administered subcutaneously in the following vehicles; Inhibitors of sEH were formulated in trans free oleate and administered in a total volume of 300 µL Rolipram, picrotoxin, flucanozole, miconazole and finasteride were all dissolved in a sterile saline solution containing 25% DMSO and administered in a volume of 50 μl. Caffeine was dissolved in saline and administered in a total volume of 300 μl. All agents were administered subcutaneously into the back. In groups treated with the sEHi, cytochrome P450 inhibitors, finasteride or picrotoxin animals were pretreated one hour before other compounds. In groups treated with the PDEi, immediately following PDEi administration animals were placed in acrylic chambers on a glass platform maintained at a temperature of 30±1° C. for TWL measurement. Three to five TWL measurements were taken at 1-2 min interstimulus intervals following treatments and these were averaged for each animal at each time point. For MWT measurement, 45 minutes following treatment, the probe of the Randall-Selitto paw pressure meter was applied to the dorsal surface of the hind paw. The instrument was set to the maximum holding (MH) mode and the readout that elicited a hind paw withdrawal was designated as the threshold. Three MWT measurements were taken at 1-2 min interstimulus intervals and these were averaged for each animal. Data are presented as percent change from each animal's baseline response. Open field activity was quantified using a Plexiglas chamber (40×40×30 cm, length×width×height) imprinted with a 10×10 cm grid. Animals were placed in the middle of the chamber and observed for two minutes. The number of crossings were recorded when both hind paws crossed into a neighboring cell.
A non-inflammatory model was used to test the hypothesis that elevated intracellular cAMP and EETs will act synergistically in producing antinociception. Intracellular cAMP levels were increased by administering increasing doses of two CNS permeable PDEi; rolipram, a PDE-4 selective inhibitor and caffeine, a non selective PDEi. […]

C57BL/6 mice = assay: Pentobarbital induced loss of righting reflex; type: in vivo, mouse; details: pentobarbital 40 mg/kg i.p., TPAU 3 mg/kg, rolipram 1 mg/kg s.c.
Source text: Loss of righting was quantified as previously described, with a slightly lower dose of pentobarbital (Pinna, et al. (2004) Proc Natl Acad Sci USA, 101(16), 6222-6225).
In rats, sEHi-PDEi combination led to significant increases in nociceptive thresholds. We asked if co-administration of sEHi-PDEi combination would also enhance GABA-related activity in mice. Loss of righting reflex in pentobarbital administered mice following sEHi and PDEi administration was quantified.

StARD1 mRNA [6] = assay: StARD1 expression after rolipram and TPAU, qRT-PCR; type: in vivo, rat; details: rats
Source text: Briefly, RNA from whole spinal cord, brain and adrenal gland samples were extracted using a purelink Micro to Midi total RNA purification kit (Invitrogen, CA). The RNA samples were quantified by spectrophotometry and converted to cDNA using a high capacity cDNA reverse transcription kit from Applied Biosystems (CA, USA). Taq-man probe for StARD1 (Rn00580695_ml) was used according to manufacturer's instructions to quantify relative gene expression (Applied Biosystems CA, USA). Experiments were performed in triplicate with glyceraldehyde 3-phosphate dehydrogenase gene serving as the endogenous control. Mean fold expression values from corresponding vehicle treated animal tissues were used as calibrators.
These findings encouraged us to investigate the expression of StARD1 message as a marker of steroidogenic activity. […] Adrenal StARD1 from the same animals was also monitored as a marker of peripheral steroidogenesis.

rats [7] = assay: Open field / motor activity; type: in vivo, rat; details: rolipram 0.1 and TPAU 10 mg/kg
allopregnanolone = assay: Radioimmunoassay of allopregnanolone in spinal cord and brain; type: in vivo, rat; details: rats, increasing rolipram doses, TPAU 10 mg/kg s.c.
Procedure: Radioimmunoassays were conducted as previously described (Janis G, C. et al., Alcoholism: Clinical and Experimental Research 22:2055-2061 (1998)). Briefly, spinal cord and brain samples were weighed and suspended in 2.5 ml of 0.3N NaOH, homogenized with a sonic dismembrator, and extracted three times with 3 ml aliquots of 10% ethyl acetate in heptane (vol/vol). Extraction recovery was monitored by the addition of 2000 cpm of [^3H]allopregnanolone. The extracts were purified using solid phase silica columns (Burdick and Jackson, Muskegon, Mich.) and subsequently dried. Samples were reconstituted and assayed in duplicate by the addition of [^3H]allopregnanolone and anti-allopregnanolone antibody (1:2000; Custom synthesis, Reproductive Endocrine Unit, Massachusetts General Hospital). Total binding was determined in the absence of unlabeled allopregnanolone and nonspecific binding was determined in the absence of antibody. The antibody binding reaction is allowed to equilibrate for 2 hours and cold dextran-coated charcoal was used to separate bound from unbound steroid. Bound radioactivity was determined by liquid scintillation spectroscopy. Steroid levels in the samples were extrapolated from a concurrently run standard curve and corrected for their respective extraction efficiencies. The sensitivity of the assay was 0.63 ng/ml. The intraassay coefficient of variation was <5%.

[8] = test system: C57BL/6 mice; sEH null mice; assay: Picrotoxin induced seizures; type: in vivo, mouse
[9] = test system: circulating testosterone and progesterone; assay: Circulating steroid hormone levels by RIA; type: in vivo, rat; details: rats
[10] = test system: plasma oxylipins (EETs, DHETs, PGE2); assay: Plasma oxylipin analysis in LPS treated rats; type: in vivo, rat
Source text: Plasma was collected by cardiac puncture under deep anesthesia. Rats were anesthetized by isoflurane overdose and decapitated. Whole brains were immediately excised and flash frozen. […] Dorsal roots were excluded.

rats [11] = assay: Thermal withdrawal latency, intraplantar LPS inflammatory pain model and non-inflamed controls; type: in vivo, rat; details: for effect on AEPU mediated antihyperalgesia: LPS treated rats, AEPU 50 mg/kg topical; for thermal withdrawal latency in the absence of inflammation: control rats, i.pl. saline; for LPS elicited thermal hyperalgesia (thermal withdrawal latency): rats, i.pl. LPS 10 μg
[12] = one hour, increasing rolipram doses, TPAU 10 mg/kg

Nc1ncnc2c1nc(Br)n2[C@@H]1O[C@@H]2COP(=O)(O)O[C@H]2[C@H]1O [8-Br cAMP]
brain StARD1 expression (StARD1 mRNA [1]): Neither brain nor spinal StARD1 expression changed
spinal StARD1 expression (StARD1 mRNA [1]): without effect

O=C(O)CCCCCCCCCCCNC(=O)NC12CC3CC(CC(C3)C1)C2 [AUDA, 12-(3-Adamantan-1-yl-ureido)dodecanoic acid]
plasma inhibitor levels relative to rat sEH IC50 [2]: 200 fold
effect on caffeine's increase of mechanical withdrawal threshold (rats [3]; rats, AUDA 40 mg/kg): enhanced
mechanical allodynia elicited by streptozocin induced diabetic neuropathy (rats [4]): reduced
thermal withdrawal latency, sEHi alone (rats [5]; rats, s.c., over 4 hours, vs baseline): no significant differences

OC(Cn1cncn1)(Cn1cncn1)c1ccc(F)cc1F [Flucanozole]
effect on the dose-effect curve of rolipram (antinociception) (rats [5]; rats, s.c.): antagonized

COc1ccc(C2CNC(=O)C2)cc1OC1CCCC1 (centres unmarked) [Rolipram]
duration of pentobarbital induced loss of righting response (C57BL/6 mice): no effect; also recorded: did not change
decrease in adrenal gland StARD1 expression (StARD1 mRNA [6]): 30%
brain StARD1 expression (StARD1 mRNA [6]; [12]): no change
spinal cord StARD1 expression (StARD1 mRNA [6]; [12]): biphasic increase
ED50 (rats [3]; Rattus norvegicus, sc, rats, rolipram dose, AUDA 40 mg/kg): 0.3 mg/kg
open field activity / motor function (rats [7]): depression of activity
ED50 (rats [5]; Rattus norvegicus, sc): 0.53 mg/kg
efficacy, increase over baseline in thermal withdrawal latency (rats [5]; rats, s.c.): 202%
brain allopregnanolone levels (allopregnanolone): significantly increased allopregnanolone levels at one dose point only
spinal cord allopregnanolone levels (allopregnanolone): did not change
time to onset of picrotoxin induced seizures ([8]; C57BL/6 mice, picrotoxin 10 mg/kg s.c., TPAU 3 mg/kg, rolipram 1 mg/kg s.c.): no effect
onset of picrotoxin induced seizures in sEH null mice ([8]; sEH null mice, increasing doses): delayed in a dose dependent manner

CCC1(c2ccc(N)cc2)CCC(=O)NC1=O (centres unmarked) [aminoglutethimide]
circulating / plasma progesterone level [9]: significantly reduced
plasma EET/DHET ratio ([10]; LPS and AEPU-treated rats): did not change
antagonism of sEHI reduction of PGE2 ([10]; LPS+AEPU+AGL treated rats): did not antagonize
effect on AEPU mediated antihyperalgesia (rats [11]): blocked
thermal withdrawal latency in the absence of inflammation (rats [11]): failed to alter
LPS elicited thermal hyperalgesia (thermal withdrawal latency) (rats [11]): failed to alter

Cn1c(=O)c2c(ncn2C)n(C)c1=O [caffeine]
open field activity / motor function (rats [7]): did not cause depression of motor activity

CC(C)(C)NC(=O)[C@H]1CC[C@H]2[C@@H]3CC[C@H]4NC(=O)C=C[C@]4(C)[C@H]3CC[C@]12C [finasteride]
effect on AEPU mediated antihyperalgesia (rats [11]): blocked
thermal withdrawal latency in the absence of inflammation (rats [11]): failed to alter
LPS elicited thermal hyperalgesia (thermal withdrawal latency) (rats [11]): failed to alter
effect on the dose-effect curve of rolipram (antinociception) (rats [5]; rats, s.c.): antagonized

Clc1ccc(COC(Cn2ccnc2)c2ccc(Cl)cc2Cl)c(Cl)c1 (centres unmarked) [miconazole]
effect on the dose-effect curve of rolipram (antinociception) (rats [5]; rats, s.c.): failed to change

CC#C[C@]1(O)CC[C@H]2[C@@H]3CCC4=CC(=O)CCC4=C3[C@@H](c3ccc(N(C)C)cc3)C[C@@]21C [mifepristone]
effect on AEPU mediated antihyperalgesia (rats [11]): did not block

CC1(C)NC(=O)N(c2ccc([N+](=O)[O-])c(C(F)(F)F)c2)C1=O [nilutamide]
effect on AEPU mediated antihyperalgesia (rats [11]): did not block

CC(=O)S[C@@H]1CC2=CC(=O)CC[C@]2(C)[C@H]2CC[C@@]3(C)[C@@H](CC[C@@]34CCC(=O)O4)[C@H]12 [spironolactone]
effect on AEPU mediated antihyperalgesia (rats [11]): did not block

CC/C(=C(\c1ccccc1)c1ccc(OCCN(C)C)cc1)c1ccccc1 [tamoxifen]
effect on AEPU mediated antihyperalgesia (rats [11]): did not block

picrotoxin
effect on rolipram+AUDA increase in mechanical withdrawal threshold (rats [3]; picrotoxin 0.25 mg/kg): antagonized
effect on rolipram+AUDA antinociception, thermal withdrawal (rats [5]; picrotoxin 0.25 mg/kg): antagonized
baseline nociceptive responses, given alone (rats [5]; picrotoxin 0.25 mg/kg s.c.): did not change baseline responses
